# Reference: patent publication US9133157B2, “HIV protease inhibitors” (Merck Canada Inc., priority 2011, dated 2015)
# Molecular target: WT HIV-1 protease (Human immunodeficiency virus type 1 group M subtype B (isolate HXB2) (HIV-1), UniProt P04585)
# Test: Assay for inhibition of microbial expressed HIV protease (Procedure A, peptide substrate, HPLC fluorescence detection)
# Assay type: biochemical
# Conditions: WT HIV-1 protease 10 pM, substrate 400 micromolar, pH 5.5, 30 min preincubation, 1 hour at 30° C.; read-out: Enzyme inhibition IC50
# Outline: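 E. coli-expressed enzyme preincubated 30 min at room temperature with compound in 50 mM sodium acetate pH 5.5, 100 mM NaCl, 0.1% BSA. Reaction ran 1 h at 30° C with 400 micromolar Val-Ser-Gln-Asn-(betanaphthyl)Ala-Pro-Ile-Val substrate and 10 picomolar protease. After phosphoric acid quench, product was measured by C18 HPLC with fluorescence (ex 270/em 330 nm).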
row,Structure (SMILES),IC50 [nM]
1,"COC(=O)N[C@H](C(=O)N[C@H](c1ccc([C@@H](CO)N(CCC(C)(C)C)S(=O)(=O)c2ccc(N)cc2F)s1)C(F)(F)F)C(c1ccccc1)c1ccccc1 [Example 98, N-[(1S)-1-{5-[(1R)-1-{[(4-amino-2-fluorophenyl)sulfonyl](3,3-dimethylbutyl)amino}-2-hydroxyethyl]thiophen-2-yl}-2,2,2-trifluoroethyl]-Nα-(methoxycarbonyl)-β-phenyl-L-phenylalaninamide]",0.44
2,"COC(=O)N[C@H](C(=O)N[C@H](c1ccc([C@@H](CO)N(CCC(C)(C)C)S(=O)(=O)c2cn3ccnc3cn2)s1)C(F)(F)F)C(c1ccccc1)c1ccccc1 [Example 99, N-[(1S)-1-(5-{(1R)-1-[(3,3-dimethylbutyl)(imidazo[1,2-a]pyrazin-6-ylsulfonyl)amino]-2-hydroxyethyl}thiophen-2-yl)-2,2,2-trifluoroethyl]-Nα-(methoxycarbonyl)-β-phenyl-L-phenylalaninamide]",3.39
3,"COC(=O)N[C@H](C(=O)N[C@H](c1ccc([C@@H](CO)N(CCC(C)(C)C)S(=O)(=O)c2ccc3ncsc3c2)s1)C(F)(F)F)C(c1ccccc1)c1ccccc1 [Example 100, N-[(1S)-1-(5-{(1R)-1-[(1,3-benzothiazol-6-ylsulfonyl)(3,3-dimethylbutyl)amino]-2-hydroxyethyl}thiophen-2-yl)-2,2,2-trifluoroethyl]-Nα-(methoxycarbonyl)-β-phenyl-L-phenylalaninamide]",0.9
4,"COC(=O)N[C@H](C(=O)N[C@H](c1ccc([C@@H](CO)N(CCC(C)(C)C)S(=O)(=O)c2ccc3nn[nH]c3c2)s1)C(F)(F)F)C(c1ccccc1)c1ccccc1 [Example 101, N-[(1S)-1-(5-{(1R)-1-[(1H-benzotriazol-6-ylsulfonyl)(3,3-dimethylbutyl)amino]-2-hydroxyethyl}thiophen-2-yl)-2,2,2-trifluoroethyl]-Nα-(methoxycarbonyl)-β-phenyl-L-phenylalaninamide]",0.84
5,"COC(=O)N[C@H](C(=O)N[C@H](c1ccc([C@@H](CO)N(CCC(C)(C)C)S(=O)(=O)c2ccc3cn[nH]c3c2)s1)C(F)(F)F)C(c1ccccc1)c1ccccc1 [Example 102, N-[(1S)-1-(5-{(1R)-1-[(3,3-dimethylbutyl)(1H-indazol-6-ylsulfonyl)amino]-2-hydroxyethyl}thiophen-2-yl)-2,2,2-trifluoroethyl]-Nα-(methoxycarbonyl)-β-phenyl-L-phenylalaninamide]",0.63
6,"COC(=O)N[C@H](C(=O)N[C@H](c1ccc([C@@H](CO)N(CCC(C)(C)C)S(=O)(=O)c2ccc3[nH]ccc3c2)s1)C(F)(F)F)C(c1ccccc1)c1ccccc1 [Example 103, N-[(1S)-1-(5-{(1R)-1-[(3,3-dimethylbutyl)(1H-indol-5-ylsulfonyl)amino]-2-hydroxyethyl}thiophen-2-yl)-2,2,2-trifluoroethyl]-Nα-(methoxycarbonyl)-β-phenyl-L-phenylalaninamide]",6.14
7,"COC(=O)N[C@H](C(=O)N[C@H](c1ccc([C@@H](CO)N(CCC(F)(F)F)S(=O)(=O)c2ccc3ncsc3c2)s1)C(F)(F)F)C(c1ccccc1)c1ccccc1 [Example 104, N-[(1S)-1-(5-{(1R)-1-[(1,3-benzothiazol-6-ylsulfonyl)(3,3,3-trifluoropropyl)amino]-2-hydroxyethyl}thiophen-2-yl)-2,2,2-trifluoroethyl]-Nα-(methoxycarbonyl)-β-phenyl-L-phenylalaninamide]",0.85
8,"COC(=O)N[C@H](C(=O)N[C@H](c1ccc([C@@H](CO)N(CCCC(F)(F)F)S(=O)(=O)c2ccc3ncsc3c2)s1)C(F)(F)F)C(c1ccccc1)c1ccccc1 [Example 105, N-[(1S)-1-(5-[(1R)-1-[(1,3-benzothiazol-6-ylsulfonyl)(4,4,4-trifluorobutyl)amino]-2-hydroxyethyl}thiophen-2-yl)-2,2,2-trifluoroethyl]-Nα-(methoxycarbonyl)-β-phenyl-L-phenylalaninamide]",1.77
9,"[2H]C([2H])([2H])C([2H])(N([C@H](CO)c1ccc([C@@H](NC(=O)[C@@H](NC(=O)OC)C(c2ccccc2)c2ccccc2)C(F)(F)F)s1)S(=O)(=O)c1ccc2ncsc2c1)C([2H])([2H])[2H] [Example 106, N-[(1S)-1-{5-[(1R)-1-{(1,3-benzothiazol-6-ylsulfonyl)[(2-^2H)propan-2-yl]amino}-2-hydroxyethyl]thiophen-2-yl}-2,2,2-trifluoroethyl]-Nα-(methoxycarbonyl)-β-phenyl-L-phenylalaninamide]",34.7
10,"[2H]C([2H])([2H])C([2H])(N([C@H](CO)c1ccc([C@@H](NC(=O)[C@@H](NC(=O)OC)C(c2ccccc2)c2ccccc2)C(F)(F)F)s1)S(=O)(=O)c1ccc2[nH]ncc2c1)C([2H])([2H])[2H] [Example 107, Nα-(methoxycarbonyl)-β-phenyl-N-[(1S)-2,2,2-trifluoro-1-{5-[(1R)-2-hydroxy-1-1(1H-indazol-5-ylsulfonyl)[(2-^2H)propan-2-yl]amino}ethyl]thiophen-2-yl}ethyl-L-phenylalaninamide]",23.4
11,"[2H]C([2H])([2H])C([2H])(N([C@H](CO)c1ccc([C@@H](NC(=O)[C@@H](NC(=O)OC)C(c2ccccc2)c2ccccc2)C(F)(F)F)s1)S(=O)(=O)c1ccc(N)cc1F)C([2H])([2H])[2H] [Example 108, N-[(1S)-1-{5-[(1R)-1-{[(4-amino-2-fluorophenyl)sulfonyl][(2-^2H)propan-2-yl]amino}-2-hydroxyethyl]thiophen-2-yl}-2,2,2-trifluoroethyl]-Nα-(methoxycarbonyl)-β-phenyl-L-phenylalaninamide]",9.4
12,"COC(=O)N[C@H](C(=O)N[C@H](c1ccc([C@@H](CO)N(C(C)C)S(=O)(=O)c2ccc(C(N)=O)cc2)s1)C(F)(F)F)C(c1ccccc1)c1ccccc1 [Example 109, methyl [(1S)-2-{[(1)-1-(5-{(1R)-1-[{[4-(aminocarbonyl)phenyl]sulfonyl}(isopropyl)amino]-2-hydroxyethyl}-2-thienyl)-2,2,2-trifluoroethyl]amino}-1-(diphenylmethyl)-2-oxoethyl]carbamate]",31.5
13,COC(=O)N[C@H](C(=O)N[C@H](c1ccc([C@@H](CO)N(CCC(C)(C)C)S(=O)(=O)c2ccc(-n3ncnn3)cc2)s1)C(F)(F)F)C(c1ccccc1)c1ccccc1 [Example 110],10.5
14,"COC(=O)N[C@H](C(=O)N[C@H](c1ccc([C@@H](CO)N(CCC(C)(C)C)S(=O)(=O)c2ccc(-n3cnnn3)cc2)s1)C(F)(F)F)C(c1ccccc1)c1ccccc1 [Example 111, N-((1S)-1-{5-[(1R)-1-((3,3-dimethylbutyl){[4-(1H-tetrazol-1-yl)phenyl]sulfonyl}amino)-2-hydroxyethyl]-2-thienyl}-2,2,2-trifluoroethyl)-Nα-(methoxycarbonyl)-β-phenyl-L-phenylalaninamide]",19.3
15,COC(=O)N[C@H](C(=O)N[C@H](c1ccc([C@@H](CO)N(CCC(C)(C)C)S(=O)(=O)c2ccc(-n3nccn3)cc2)s1)C(F)(F)F)C(c1ccccc1)c1ccccc1 [Example 112],73.5
16,COC(=O)N[C@H](C(=O)N[C@H](c1ccc([C@@H](CO)N(CCC(C)(C)C)S(=O)(=O)c2ccc(-n3ccnn3)cc2)s1)C(F)(F)F)C(c1ccccc1)c1ccccc1 [Example 113],25.9
17,"COC(=O)N[C@H](C(=O)N[C@H](c1ccc([C@@H](CO)N(CCC(C)(C)C)S(=O)(=O)c2ccc(-c3ccno3)cc2)s1)C(F)(F)F)C(c1ccccc1)c1ccccc1 [Example 114, N-{(1S)-1-[5-((1R)-1-{(3,3-dimethylbutyl)[(4-isoxazol-5-ylphenyl)sulfonyl]amino}-2-hydroxyethyl)-2-thienyl]-2,2,2-trifluoroethyl}-Nα-(methoxycarbonyl)-β-phenyl-L-phenylalaninamide]",0.77
18,"COC(=O)N[C@H](C(=O)N[C@H](c1ccc([C@@H](CO)N(CCC(C)(C)C)S(=O)(=O)c2ccc(N)c(Cl)c2)s1)C(F)(F)F)C(c1ccccc1)c1ccccc1 [Example 116, N-[(1S)-1-(5-{(1R)-1-[[(4-amino-3-chlorophenyl)sulfonyl](3,3-dimethylbutyl)amino]-2-hydroxyethyl}-2-thienyl)-2,2,2-trifluoroethyl]-Nα-(methoxycarbonyl)-β-phenyl-L-phenylalaninamide]",3.54
19,"COC(=O)N[C@H](C(=O)N[C@H](c1ccc([C@@H](CO)N(CCC(C)(C)C)S(=O)(=O)c2ccc(N)cc2Cl)s1)C(F)(F)F)C(c1ccccc1)c1ccccc1 [Example 117, N-[(1S)-1-(5-{(1R)-1-[[(4-amino-2-chlorophenyl)sulfonyl](3,3-dimethylbutyl)amino]-2-hydroxyethyl}-2-thienyl)-2,2,2-trifluoroethyl]-Nα-(methoxycarbonyl)-β-phenyl-L-phenylalaninamide]",0.47
20,"COC(=O)N[C@H](C(=O)N[C@H](c1ccc([C@@H](CO)N(CCC(C)(C)C)S(=O)(=O)c2ccc3ncnn3c2)s1)C(F)(F)F)C(c1ccccc1)c1ccccc1 [Example 118, N-[(1S)-1-(5-{(1R)-1-[(3,3-dimethylbutyl)([1,2,4]triazolo[1,5-a]pyridin-6-ylsulfonyl)amino]-2-hydroxyethyl}thiophen-2-yl)-2,2,2-trifluoroethyl]-Nalpha-(methoxycarbonyl)-beta-phenyl-L-phenylalaninamide]",2.43
21,"COC(=O)N[C@H](C(=O)N[C@H](c1ccc([C@@H](CO)N(CCC(C)(C)C)S(=O)(=O)c2cn3cc(Cl)nc3cn2)s1)C(F)(F)F)C(c1ccccc1)c1ccccc1 [Example 119, N-[(1S)-1-{5-[(1R)-1-{[(2-chloroimidazo[1,2-a]pyrazin-6-yl)sulfonyl](3,3-dimethylbutyl)amino}-2-hydroxyethyl]thiophen-2-yl}-2,2,2-trifluoroethyl]-Nα-(methoxycarbonyl)-β-phenyl-L-phenylalaninamide]",13.9
